Experimental data from patent US20240116985A1, “STAPLED PEPTIDES AND METHODS THEREOF” (priority 2020, published 2024).
Non-standard residues stand in square brackets, D forms with d. Residues, ends and D or L forms follow the SMILES beside them. Bta = N[C@@H](Cc1csc2ccccc12)C(=O)O; tBuAla = CC(C)(C)C[C@H](N)C(=O)O; 3Thi = N[C@@H](Cc1ccsc1)C(=O)O; αMeP = C[C@@]1(C(=O)O)CCCN1; Aib = CC(C)(N)C(=O)O

Biological target: T1, full-length beta-Catenin (Uniprot ID P35222) (Homo sapiens, UniProt P35222)
T1 construct: 10 nM full-length beta-Catenin (Uniprot ID P35222)
T1 sequence (P35222 1-781): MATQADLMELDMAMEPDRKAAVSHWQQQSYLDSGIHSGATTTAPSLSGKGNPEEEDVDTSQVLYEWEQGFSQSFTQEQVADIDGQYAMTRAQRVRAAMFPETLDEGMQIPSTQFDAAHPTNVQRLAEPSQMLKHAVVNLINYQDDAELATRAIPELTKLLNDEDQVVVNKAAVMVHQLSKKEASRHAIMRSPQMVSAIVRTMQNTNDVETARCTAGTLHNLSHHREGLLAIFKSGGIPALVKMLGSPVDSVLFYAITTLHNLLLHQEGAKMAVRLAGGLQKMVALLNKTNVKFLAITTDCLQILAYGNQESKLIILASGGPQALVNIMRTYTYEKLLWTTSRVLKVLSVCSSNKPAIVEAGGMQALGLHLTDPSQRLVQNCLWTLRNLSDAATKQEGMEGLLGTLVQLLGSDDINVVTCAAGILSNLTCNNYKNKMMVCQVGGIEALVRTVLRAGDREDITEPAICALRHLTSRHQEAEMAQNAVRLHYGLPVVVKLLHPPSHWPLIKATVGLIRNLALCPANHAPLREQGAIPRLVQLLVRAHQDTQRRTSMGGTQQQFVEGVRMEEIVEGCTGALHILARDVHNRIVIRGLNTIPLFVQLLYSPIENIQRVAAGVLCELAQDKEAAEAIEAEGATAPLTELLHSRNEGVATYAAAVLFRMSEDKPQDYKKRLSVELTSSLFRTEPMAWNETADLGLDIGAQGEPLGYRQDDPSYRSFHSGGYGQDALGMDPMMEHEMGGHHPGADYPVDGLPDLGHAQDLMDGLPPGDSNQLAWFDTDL
Assay: Fluorescence polarization IC50 (beta-catenin / 5FAM-TCF4 10-53 competition)
Assay type: binding
Details: fluorescence polarization; read-out: beta-Catenin FP IC50

IC50 | Structure (SMILES)
2350 nM | CC(=O)N1CCC[C@]12CC=CCCCC1(CCCC=CCCCOC(=O)N3CC[C@@](C(=O)N[C@@H](Cc4ccccc4)C(=O)N[C@@H](Cc4csc5ccccc45)C(=O)N[C@@H](CCC(N)=O)C(N)=O)(C3)NC(=O)[C@H](CC(C)C)NC(=O)[C@H](Cc3ccccc3)NC(=O)[C@H](C)NC(=O)[C@H](CCCCNC(C)C)NC(=O)[C@H](CCC(N)=O)NC(=O)[C@H](CC(=O)O)NC1=O)NC(=O)[C@H](Cc1ccc(O)cc1)NC(=O)[C@H](CC(N)=O)NC2=O (stereo partly drawn) [I-1647, Ac-PL3-Asn-Tyr-B5-Asp-Gln-iPrLys-Ala-Phe-Leu-PyrS2-Phe-BztA-Gln-NH2]
2140 nM | CC(=O)N1CCC[C@@]1(C)C(=O)N[C@@H](CC(=O)O)C(=O)N[C@@H](CC(C)(C)C)C(=O)NC(C)(C)C(=O)N[C@@H](CC(=O)O)C(=O)N[C@@H](CC(=O)O)C(=O)N[C@@H](C)C(=O)N[C@@H](C)C(=O)N[C@@H](Cc1ccccc1)C(=O)N[C@@H](CCC(N)=O)C(=O)NC(C)(C)C(=O)N[C@@H](Cc1ccsc1)C(=O)N[C@@H](Cc1csc2ccccc12)C(=O)N[C@@H](Cc1c[nH]cn1)C(N)=O [I-2228, Ac-MePro-Asp-Npg-Aib-Asp-Asp-Ala-Ala-Phe-Gln-Aib-3thi-BztA-His-NH2] (Ac-[αMeP]D[tBuAla][Aib]DDAAFQ[Aib][3Thi][Bta]H-NH2)
927 nM | CC(=O)N1CCC[C@]12CC=CCCCC1(CCCC=CCCCCOC(=O)N3CC[C@@](C(=O)N[C@@H](Cc4ccsc4)C(=O)N[C@@H](Cc4csc5ccccc45)C(=O)N[C@@H](CCC(N)=O)C(N)=O)(C3)NC(=O)[C@H](CC(N)=O)NC(=O)[C@H](Cc3ccccc3)NC(=O)[C@H](C)NC(=O)[C@H](C)NC(=O)[C@H]([C@@H](C)O)NC(=O)[C@H](CC(N)=O)NC1=O)NC(=O)[C@H](CC(C)(C)C)NC(=O)[C@H](CC(=O)O)NC2=O (stereo partly drawn) [I-2199, Ac-PL3-Asp-Npg-B5-Asn-Thr-Ala-Ala-Phe-Asn-PyrS3-3Thi-BztA-Gln-NH2]
8220 nM | CC(C)C[C@H](NC(=O)[C@]12CCN(C1)C(=O)OCCCC=CCCCC1(CCCC=CCCCC(=O)N3CCC[C@@]3(C)C(=O)N[C@@H](CC(=O)O)C(=O)N1)C(=O)N[C@@H](C)C(=O)N[C@@H](CC(=O)O)C(=O)N[C@@H](Cc1cccc(C(=O)O)c1)C(=O)N[C@@H](C)C(=O)N[C@@H](C)C(=O)N[C@@H](Cc1ccccc1)C(=O)N2)C(=O)N[C@@H](Cc1ccsc1)C(=O)N[C@@H](Cc1csc2ccccc12)C(=O)N[C@@H](CCC(N)=O)C(N)=O (stereo partly drawn) [I-2602, 5hexenyl-MePro-Asp-B5-Ala-Asp-3COOHF-Ala-Ala-Phe-PyrS2-Leu-3Thi-BztA-Gln-NH2]
3360 nM | CC(=O)N1CCC[C@]12CC=CCCCC1(CCCC=CCCCOC(=O)N3CC[C@@](C(=O)N[C@@H](Cc4ccccc4)C(=O)N[C@@H](Cc4csc5ccccc45)C(=O)N[C@@H](CCCCN)C(N)=O)(C3)NC(=O)[C@H](CC(C)C)NC(=O)[C@H](Cc3ccccc3)NC(=O)[C@H](C)NC(=O)[C@H](CO)NC(=O)[C@H](CCC(N)=O)NC(=O)[C@H](CC(=O)O)NC1=O)NC(=O)[C@H](CC1CCCCC1)NC(=O)[C@H](CC(N)=O)NC2=O (stereo partly drawn) [I-2422, Ac-PL3-Asn-Cha-B5-Asp-Gln-Ser-Ala-Phe-Leu-PyrS2-Phe-BztA-Lys-NH2]
8 nM | CC(=O)N1CCC[C@]12CC=CCCCC1(CCCC=CCCCOC(=O)N3CC[C@@](C(=O)N[C@@H](Cc4ccsc4)C(=O)N[C@@H](Cc4csc5ccccc45)C(=O)N[C@@H](CCC(N)=O)C(N)=O)(C3)NC(=O)[C@H](CC(N)=O)NC(=O)[C@H](Cc3ccccc3)NC(=O)[C@H](C)NC(=O)[C@H](C)NC(=O)[C@H](CN(CCC(F)(F)F)CC(=O)O)NC(=O)[C@H](CC(=O)O)NC1=O)NC(=O)[C@H](CC(C)(C)C)NC(=O)[C@H](CC(=O)O)NC2=O (stereo partly drawn) [I-1640, Ac-PL3-Asp-Npg-B5-Asp-[Tfp]GA-Ala-Ala-Phe-Asn-PyrS2-3Thi-BztA-Gln-NH2]
39 nM | CC(=O)N1CCC[C@]12CC=CCCCC1(CCCC=CCCCCCC[C@@](C)(C(=O)N[C@@H](Cc3ccccc3)C(=O)N[C@@H](Cc3csc4ccccc34)C(=O)N[C@@H](CCC(N)=O)C(N)=O)NC(=O)[C@H](CC(C)C)NC(=O)[C@H](Cc3ccccc3)NC(=O)[C@H](C)NC(=O)[C@H](C)NC(=O)[C@H](CCC(=O)O)NC(=O)[C@H](CC(=O)O)NC1=O)NC(=O)[C@H](CCC(N)=O)NC(=O)[C@H](CC(=O)O)NC2=O (stereo partly drawn) [I-1541, Ac-PL3-Asp-Gln-B5-Asp-Glu-Ala-Ala-Phe-Leu-S8-Phe-BztA-Gln-NH2]
11 nM | CC(=O)N1CCC[C@]12CC=CCCCC1(CCCC=CCCCOC(=O)N3CC[C@@](C(=O)N[C@@H](Cc4ccsc4)C(=O)N[C@@H](Cc4csc5ccccc45)C(=O)N[C@@H](CCC(N)=O)C(=O)NCc4ccccc4)(C3)NC(=O)[C@H](CC(N)=O)NC(=O)[C@H](Cc3ccccc3)NC(=O)[C@H](C)NC(=O)[C@H](C)NC(=O)[C@H](CC(=O)O)NC(=O)[C@H](CC(=O)O)NC1=O)NC(=O)[C@H](CC(C)(C)C)NC(=O)[C@H](CC(=O)O)NC2=O (stereo partly drawn) [I-1257, Ac-PL3-Asp-Npg-B5-Asp-Asp-Ala-Ala-Phe-Asn-PyrS2-3Thi-BztA-Gln-NHBn]
401 nM | CC(=O)N1CCC[C@]12CC=CCCCC1(CCCC=CCCCOC(=O)N3CC[C@@](C(=O)N[C@@H](Cc4ccccc4)C(=O)N[C@@H](Cc4csc5ccccc45)C(=O)N[C@@H](CCCN4CCOCC4)C(N)=O)(C3)NC(=O)[C@H](CC(C)C)NC(=O)[C@H](Cc3ccccc3)NC(=O)[C@H](C)NC(=O)[C@H](CCCCNC(C)C)NC(=O)[C@H](CCC(N)=O)NC(=O)[C@H](CC(=O)O)NC1=O)NC(=O)[C@H](CC1CCCCC1)NC(=O)[C@H](CC(N)=O)NC2=O (stereo partly drawn) [I-2428, Ac-PL3-Asn-Cha-B5-Asp-Gln-iPrLys-Ala-Phe-Leu-PyrS2-Phe-BztA-MorphNva-NH2]
458 nM | CC(=O)N1CCC[C@]12CC=CCCCC1(CCCC=CCCCOC(=O)N3CC[C@@](C(=O)N[C@@H](Cc4ccsc4)C(=O)N[C@@H](Cc4csc5ccccc45)C(=O)N[C@H](C(N)=O)C(C)C)(C3)NC(=O)[C@H](CC(N)=O)NC(=O)[C@H](Cc3ccccc3)NC(=O)[C@H](C)NC(=O)[C@H](C)NC(=O)[C@H]([C@@H](C)O)NC(=O)[C@H](CC(N)=O)NC1=O)NC(=O)[C@H](CC(C)(C)C)NC(=O)[C@H](CC(=O)O)NC2=O (stereo partly drawn) [I-1878, Ac-PL3-Asp-Npg-B5-Asn-Thr-Ala-Ala-Phe-Asn-PyrS2-3Thi-BztA-Val-NH2]
469 nM | CC(=O)N1CCC[C@]12CC=CCCCC1(CCCC=CCCCOC(=O)N3CC[C@@](C(=O)N[C@@H](Cc4ccsc4)C(=O)N[C@@H](Cc4csc5ccccc45)C(=O)N[C@@H](CCCNC(=N)N)C(N)=O)(C3)NC(=O)[C@H](CC(N)=O)NC(=O)[C@H](Cc3ccccc3)NC(=O)[C@H](C)NC(=O)[C@H](C)NC(=O)[C@H]([C@@H](C)O)NC(=O)[C@H](CC(N)=O)NC1=O)NC(=O)[C@H](CC(C)(C)C)NC(=O)[C@H](CC(=O)O)NC2=O (stereo partly drawn) [I-1743, Ac-PL3-Asp-Npg-B5-Asn-Thr-Ala-Ala-Phe-Asn-PyrS2-3Thi-BztA-Arg-NH2]
164 nM | CC(=O)N1CCC[C@]12CC=CCCCC1(CCCC=CCCCOC(=O)N3CC[C@@](C(=O)N[C@@H](Cc4ccccc4)C(=O)N[C@@H](Cc4csc5ccccc45)C(=O)N[C@@H](CCC(N)=O)C(N)=O)(C3)NC(=O)[C@H](CC(N)=O)NC(=O)[C@H](Cc3ccccc3)NC(=O)[C@H](C)NC(=O)[C@H](CCCCNC(C)C)NC(=O)[C@H](CCC(N)=O)NC(=O)[C@H](CC(=O)O)NC1=O)NC(=O)[C@H](CC1CCCCC1)NC(=O)[C@H](CC(N)=O)NC2=O (stereo partly drawn) [I-2113, Ac-PL3-Asn-Cha-B5-Asp-Gln-iPrLys-Ala-Phe-Asn-PyrS2-Phe-BztA-Gln-NH2]
5 nM | CC(=O)N1CCC[C@]12CC=CCCCC1(CCCC=CCCCOC(=O)N3CC[C@@](C(=O)N[C@@H](Cc4ccsc4)C(=O)N[C@@H](Cc4csc5ccccc45)C(=O)N[C@@H](CCC(N)=O)C(N)=O)(C3)NC(=O)[C@H](CC(C)C)NC(=O)[C@H](Cc3ccccc3)NC(=O)[C@H](C)NC(=O)[C@H](C)NC(=O)[C@H](Cn3cc(CC4(C(=O)O)CC4)nn3)NC(=O)[C@H](CC(=O)O)NC1=O)NC(=O)[C@H](CC(C)(C)C)NC(=O)[C@H](CC(=O)O)NC2=O (stereo partly drawn) [I-2482, Ac-PL3-Asp-Npg-B5-Asp-[CH2CCpCO2H]TriAzDap-Ala-Ala-Phe-Leu-PyrS2-3Thi-BztA-Gln-NH2]

Same assay, conditions: read-out: beta-Catenin FP IC50; fluorescence polarization

Structure (SMILES) | IC50
CC(=O)N1CCC[C@]12CC=CCCCC1(CCCC=CCCCOC(=O)N3CC[C@@](C(=O)N[C@@H](Cc4ccsc4)C(=O)N[C@@H](Cc4csc5ccccc45)C(=O)N[C@@H](CCC(N)=O)C(N)=O)(C3)NC(=O)[C@H](CC(C)C)NC(=O)[C@H](Cc3ccccc3)NC(=O)[C@H](C)NC(=O)[C@H](C)NC(=O)[C@H](CC(=O)O)NC(=O)[C@H](CC(=O)OCCSSc3ccccc3)NC1=O)NC(=O)[C@H](CC(C)(C)C)NC(=O)[C@H](CC(=O)O)NC2=O (stereo partly drawn) [I-1955, Ac-PL3-Asp-Npg-B5-[EtSSPh]AspE-Asp-Ala-Ala-Phe-Leu-PyrS2-3Thi-BztA-Gln-NH2] | 1200 nM
